Laboratory results from US20260297070A1, “CYCLIC [COMPOUND LEFT OUT] WRN INHIBITORS” (Nimbus Wadjet, Inc., priority 2023, published 2026).

The compounds below were run against T1, human Werner helicase (WRN-BV08, Uniprot Q14191, amino acids 517-1235 with L1074F point mutation) (Homo sapiens, UniProt Q14191, L1074F) (assay: WRN (BV08) ADP-Glo Assay). Details: 0.15 nM WRN, 5 μM ATP, 0.1 nM DNA duplex, 15 min preincubation, 60 min at 25° C., pH 7.5, 1% DMSO; read-out: ADP-Glo_hWRN_IC50.
T1 construct: Uniprot Q14191, amino acids 517-1235 with L1074F point mutation; TEV-cleavable 8×His (C, cleaved yes); made in house; host or cells: Sf9 insect cells (baculovirus)
Type: biochemical
In short: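 ADP-Glo luminescence read-out of ATP hydrolysis. Conditions: 0.15 nM WRN, 5 μM ATP, 0.1 nM DNA duplex, 1% DMSO, 60 min at 25 °C after 15 min compound preincubation. Max/min controls were DMSO and 20 μM NSC-617145; IC50 from four-parameter fit.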

T1 sequence (Q14191 with tags, fused parts or gaps L1074F limits assumed): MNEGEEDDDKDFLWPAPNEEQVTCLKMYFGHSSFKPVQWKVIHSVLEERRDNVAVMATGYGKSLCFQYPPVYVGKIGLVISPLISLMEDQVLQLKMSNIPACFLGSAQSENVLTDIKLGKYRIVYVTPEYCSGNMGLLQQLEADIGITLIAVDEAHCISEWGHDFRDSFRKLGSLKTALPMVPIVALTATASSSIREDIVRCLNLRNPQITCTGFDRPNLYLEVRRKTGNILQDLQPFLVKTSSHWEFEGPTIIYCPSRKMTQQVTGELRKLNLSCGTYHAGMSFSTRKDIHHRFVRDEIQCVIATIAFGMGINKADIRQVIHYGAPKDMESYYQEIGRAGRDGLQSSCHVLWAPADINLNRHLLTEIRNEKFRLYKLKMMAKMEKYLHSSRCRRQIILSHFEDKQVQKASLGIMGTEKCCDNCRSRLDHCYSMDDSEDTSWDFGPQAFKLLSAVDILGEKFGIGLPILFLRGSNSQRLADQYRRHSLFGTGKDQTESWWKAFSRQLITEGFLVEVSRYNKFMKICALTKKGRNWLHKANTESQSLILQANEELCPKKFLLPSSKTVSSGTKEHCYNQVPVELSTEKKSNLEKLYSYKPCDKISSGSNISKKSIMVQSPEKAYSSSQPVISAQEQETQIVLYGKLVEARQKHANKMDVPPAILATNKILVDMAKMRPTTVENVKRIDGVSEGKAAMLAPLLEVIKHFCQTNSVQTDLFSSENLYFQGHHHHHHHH

Structure (SMILES) | IC50 [µM]
COc1cc(CN(C(=O)C2CCc3c([nH]c4cccc(Cl)c34)C2)[C@@H]2C=CS(=O)(=O)C2)ccn1 (stereo partly drawn) [I-785, 5-chloro-N-[(3R)-1,1-dioxo-2,3-dihydro-1lambda6-thiophen-3-yl]-N-[(2-methoxypyridin-4-yl)methyl]-2,3,4,9-tetrahydro-1H-carbazole-2-carboxamide] | > 50
O=C([C@H]1C[C@@H](c2ccccc2)C1)N(Cc1ccncc1)C1C=CS(=O)(=O)C1 (some centres unmarked) [I-611, (1s,3s)-N-(1,1-dioxo-2,3-dihydro-1lambda6-thiophen-3-yl)-3-phenyl-N-[(pyridin-4-yl)methyl]cyclobutane-1-carboxamide] | > 50
CC(C(=O)N(Cc1ccncc1)C1C=CS(=O)(=O)C1)n1cc2ccccc2n1 (centres unmarked) [I-620, N-(1,1-dioxo-2,3-dihydro-1lambda6-thiophen-3-yl)-2-(2H-indazol-2-yl)-N-[(pyridin-4-yl)methyl]propanamide] | > 50
COc1cc(CN(C(=O)Cc2ccc(OC3CC3)cc2)C2C=CS(=O)(=O)C2)ccn1 (centres unmarked) [I-588, 2-(4-cyclopropoxyphenyl)-N-(1,1-dioxo-2,3-dihydro-1lambda6-thiophen-3-yl)-N-[(2-methoxypyridin-4-yl)methyl]acetamide] | 10 to 50
O=C(CCc1ccc(-n2cccc2)cc1)N(Cc1ccncc1)C1C=CS(=O)(=O)C1 (centres unmarked) [I-519, N-(1,1-dioxo-2,3-dihydro-1lambda6-thiophen-3-yl)-N-[(pyridin-4-yl)methyl]-3-[4-(1H-pyrrol-1-yl)phenyl]propanamide] | > 50
O=C(CCc1[nH]nc2ccccc12)N(Cc1ccncc1)C1C=CS(=O)(=O)C1 (centres unmarked) [I-413, N-(1,1-dioxo-2,3-dihydro-1lambda6-thiophen-3-yl)-3-(2H-indazol-3-yl)-N-[(pyridin-4-yl)methyl]propanamide] | > 50
COc1cc(CN(C(=O)C(c2ccc(-c3ccc(F)c(F)c3)cc2F)n2cnnn2)[C@@H]2C=CS(=O)(=O)C2)ccn1 (stereo partly drawn) [I-734, N-[(3R)-1,1-dioxo-2,3-dihydro-1lambda6-thiophen-3-yl]-N-[(2-methoxypyridin-4-yl)methyl]-2-(1H-1,2,3,4-tetrazol-1-yl)-2-{3,3′,4′-trifluoro-[1,1′-biphenyl]-4-yl}acetamide] | > 50
COc1ccc2cc(CC(=O)N(Cc3ccncc3)C3C=CS(=O)(=O)C3)ccc2c1 (centres unmarked) [I-511, N-(1,1-dioxo-2,3-dihydro-1lambda6-thiophen-3-yl)-2-(6-methoxynaphthalen-2-yl)-N-[(pyridin-4-yl)methyl]acetamide] | > 50
O=C(Cc1ccc(S(F)(F)(F)(F)F)cc1)N(Cc1nc(C2CC2)cs1)C1C=CS(=O)(=O)C1 (single isomer, unassigned) [I-253] | 10 to 50
O=C(CC1CC(c2ccccc2)C1)N(Cc1ccncc1)C1C=CS(=O)(=O)C1 (centres unmarked) [I-584, N-(1,1-dioxo-2,3-dihydro-1lambda6-thiophen-3-yl)-2-(3-phenylcyclobutyl)-N-[(pyridin-4-yl)methyl]acetamide] | > 50
O=C(Cc1ccc(-n2cccc2)cc1)N(Cc1cccc2[nH]ccc12)C1C=CS(=O)(=O)C1 (centres unmarked) [I-497, N-(1,1-dioxo-2,3-dihydro-1lambda6-thiophen-3-yl)-N-[(1H-indol-4-yl)methyl]-2-[4-(1H-pyrrol-1-yl)phenyl]acetamide] | > 50
O=C(c1cnn(Cc2ccccc2)c1)N(Cc1ccncc1)C1C=CS(=O)(=O)C1 (centres unmarked) [I-538, 1-benzyl-N-(1,1-dioxo-2,3-dihydro-1lambda6-thiophen-3-yl)-N-[(pyridin-4-yl)methyl]-1H-pyrazole-4-carboxamide] | > 50

Second part, the compound after the results:

IC50 [µM] | Structure (SMILES)
< 0.5 | COc1cc(CN(C(=O)C(c2ccc(-c3ccc(F)c(F)c3)cc2F)n2ccc(C)n2)[C@@H]2C=CS(=O)(=O)C2)ccn1 (single isomer, unassigned) [I-737, (2R*)-N-[(3R)-1,1-dioxo-2,3-dihydro-1lambda6-thiophen-3-yl]-N-[(2-methoxypyridin-4-yl)methyl]-2-(3-methyl-1H-pyrazol-1-yl)-2-{3,3′,4′-trifluoro-[1,1′-biphenyl]-4-yl}acetamide]
0.5 to 5 | COc1cc(CN(C(=O)Cc2ccc(C3(C)CC3)cc2F)C2C=CS(=O)(=O)C2)ccn1 (centres unmarked) [I-97, N-(1,1-dioxo-2,3-dihydro-1lambda6-thiophen-3-yl)-2-[2-fluoro-4-(1-methylcyclopropyl)phenyl]-N-[(2-methoxypyridin-4-yl)methyl]acetamide]
< 0.5 | CC(C)(O)c1cc(CN(C(=O)C(c2ccc(-c3ccc(F)c(F)c3)cc2F)n2cccn2)C2C=CS(=O)(=O)C2)ccn1 (single isomer, unassigned) [I-669, (2R*)-N-[(3R**)-1,1-dioxo-2,3-dihydro-1lambda6-thiophen-3-yl]-N-{[2-(2-hydroxypropan-2-yl)pyridin-4-yl]methyl}-2-(1H-pyrazol-1-yl)-2-{3,3′,4′-trifluoro-[1,1′-biphenyl]-4-yl}acetamide]
0.5 to 5 | COc1cc(CN(C(=O)Cn2cc3cc(OC(F)(F)F)ccc3n2)[C@@H]2C=CS(=O)(=O)C2)ccn1 [I-720, N-[(3R)-1,1-dioxo-2,3-dihydro-1lambda6-thiophen-3-yl]-N-[(2-methoxypyridin-4-yl)methyl]-2-[5-(trifluoromethoxy)-2H-indazol-2-yl]acetamide]
10 to 50 | Cc1cccn1-c1ccc(CC(=O)N(Cc2cncnc2)C2C=CS(=O)(=O)C2)c(F)c1 (centres unmarked) [I-364, N-(1,1-dioxo-2,3-dihydro-1lambda6-thiophen-3-yl)-2-[2-fluoro-4-(2-methyl-1H-pyrrol-1-yl)phenyl]-N-[(pyrimidin-5-yl)methyl]acetamide]
5 to 10 | COc1cc(CN(C(=O)Cc2ccc(-n3cccc3C)cn2)C2C=CS(=O)(=O)C2)ccn1 (centres unmarked) [I-250, N-(1,1-dioxo-2,3-dihydro-1lambda6-thiophen-3-yl)-N-[(2-methoxypyridin-4-yl)methyl]-2-[5-(2-methyl-1H-pyrrol-1-yl)pyridin-2-yl]acetamide]
10 to 50 | CN(C)C(=O)OC(C(=O)N(Cc1ccnc(C(C)(C)O)c1)[C@@H]1C=CS(=O)(=O)C1)c1ccc(-c2ccc(F)c(F)c2)cc1F (single isomer, unassigned) [I-636]
0.5 to 5 | CC(C)(O)c1cc(CN(C(=O)Cc2ccc(-c3ccc(Cl)cc3)cc2F)C2C=CS(=O)(=O)C2)ccn1 (centres unmarked) [I-180, 2-{4′-chloro-3-fluoro-[1,1′-biphenyl]-4-yl}-N-(1,1-dioxo-2,3-dihydro-1lambda6-thiophen-3-yl)-N-{[2-(2-hydroxypropan-2-yl)pyridin-4-yl]methyl}acetamide]
5 to 10 | O=C1Nc2cc(C(F)(F)F)ccc2SC1CC(=O)N(Cc1ccncc1)C1C=CS(=O)(=O)C1 (centres unmarked) [I-231, N-(1,1-dioxo-2,3-dihydro-1lambda6-thiophen-3-yl)-2-[3-oxo-6-(trifluoromethyl)-3,4-dihydro-2H-1,4-benzothiazin-2-yl]-N-[(pyridin-4-yl)methyl]acetamide]
0.5 to 5 | CN(Cc1ccncc1)C(=O)c1ccc(CN(C(=O)Cc2ccc(-c3ccc(F)c(F)c3)cc2F)C2C=CS(=O)(=O)C2)cc1 (centres unmarked) [I-778, 4-{[N-(1,1-dioxo-2,3-dihydro-1lambda6-thiophen-3-yl)-2-{3,3′,4′-trifluoro-[1,1′-biphenyl]-4-yl}acetamido]methyl}-N-methyl-N-[(pyridin-4-yl)methyl]benzamide]
< 0.5 | COc1cc(CN(C(=O)Cn2cc3cc(C(F)(F)C(F)(F)F)ccc3n2)[C@@H]2C=CS(=O)(=O)C2)ccn1 [I-771, N-[(3R)-1,1-dioxo-2,3-dihydro-1lambda6-thiophen-3-yl]-N-[(2-methoxypyridin-4-yl)methyl]-2-[5-(1,1,2,2,2-pentafluoroethyl)-2H-indazol-2-yl]acetamide]
< 0.5 | O=C(C(c1ccc(-c2ccc(F)c(F)c2)cc1F)n1cccn1)N(Cc1ccncc1)C1C=CS(=O)(=O)C1 (centres unmarked) [I-48, N-(1,1-dioxido-2,3-dihydrothiophen-3-yl)-2-(1H-pyrazol-1-yl)-N-(pyridin-4-ylmethyl)-2-(3,3′,4′-trifluoro-[1,1′-biphenyl]-4-yl)acetamide]
5 to 10 | CC1CC1c1ccc(CC(=O)N(Cc2ccncc2)C2C=CS(=O)(=O)C2)cc1 (centres unmarked) [I-245, N-(1,1-dioxo-2,3-dihydro-1lambda6-thiophen-3-yl)-2-[4-(2-methylcyclopropyl)phenyl]-N-[(pyridin-4-yl)methyl]acetamide]
0.5 to 5 | COc1cc(CN(C(=O)Cc2ccc(-c3ccc(F)cc3)cc2Cl)C2C=CS(=O)(=O)C2)ccn1 (centres unmarked) [I-136, 2-{3-chloro-4′-fluoro-[1,1′-biphenyl]-4-yl}-N-(1,1-dioxo-2,3-dihydro-1lambda6-thiophen-3-yl)-N-[(2-methoxypyridin-4-yl)methyl]acetamide]
0.5 to 5 | COc1cc(CN(C(=O)C2Cc3cc(-n4cccc4C)ccc32)C2C=CS(=O)(=O)C2)ccn1 (centres unmarked) [I-132, N-(1,1-dioxo-2,3-dihydro-1lambda6-thiophen-3-yl)-N-[(2-methoxypyridin-4-yl)methyl]-3-(2-methyl-1H-pyrrol-1-yl)bicyclo[4.2.0]octa-1,3,5-triene-7-carboxamide]
< 0.5 | O=C(Cn1cc(-c2ccc(F)c(F)c2)cn1)N(Cc1nc(C2CC2)cs1)C1C=CS(=O)(=O)C1 (centres unmarked) [I-599, N-[(4-cyclopropyl-1,3-thiazol-2-yl)methyl]-2-[4-(3,4-difluorophenyl)-1H-pyrazol-1-yl]-N-(1,1-dioxo-2,3-dihydro-1lambda6-thiophen-3-yl)acetamide]
0.5 to 5 | COc1cc(CN(C(=O)C2CCc3[nH]c4cc(Cl)ccc4c3C2)[C@@H]2C=CS(=O)(=O)C2)ccn1 (stereo partly drawn) [I-786, 7-chloro-N-[(3R)-1,1-dioxo-2,3-dihydro-1lambda6-thiophen-3-yl]-N-[(2-methoxypyridin-4-yl)methyl]-2,3,4,9-tetrahydro-1H-carbazole-3-carboxamide]
